# Test results published in US8586369B2, “Ion channel-forming peptides” (The Regents of the University of California, priority 2007, dated 2013).
# Tests used:
# Type in all cases: biochemical
# [1] = Single-channel conductance of homodimeric gA pores in planar lipid bilayers made from DiPhyPC (Example 1); details: for Single-channel conductance γ: HEPES pH 7.4, DiPhyPC bilayers, slope of I-V curves; for γ-ratio to gA-gA: pH 7.4, DiPhyPC
# Experimental: Formation of planar lipid bilayers: We formed most planar lipid bilayers with the “folding technique.” We used a Teflon film (Eastern Scientific Inc, pore diameter 0.18-0.25 mm) was pretreated on each side with 2.5 μL of 5% hexadecane in pentane and air dried. This film was mounted using vacuum grease (Dow Corning, High vacuum grease) to a custom made Teflon chamber separating two buffer compartments each with a volume capacity of 4 mL. After adding 1 mL of electrolyte (0.01 M to 1.00 M KCl buffered with HEPES pH 7.4) to each compartment, lipids were spread from a solution in pentane onto the surface of the electrolyte solutions (specifically, 4-6 μL from 25 mg mL-l solution DiPhyPC or from 6.25 mg mL-l each of 50% DOPS and 50% POPE or from 25 mg mL-l DODAP mixed with 25 mg mL-l DiPhyPC in a 1:9 ratio. Three additional milliliters of electrolyte solution were added to each side of the chamber to raise the liquid levels above the aperture. We formed the bilayers from apposition of two monolayers of lipids using the method described by Montal et al. (Proc. Natl. Acad. Sci. U.S.A. 1972, 69, 3561-3566). Briefly, bilayers were obtained by consecutively raising the liquid level in each compartment until the pore was completely covered by electrolyte. If at this point the pore was not closed by a lipid bilayer, then the liquid level in one or both compartments was lowered below the pore level by aspirating electrolyte into a 3 mL syringe, followed by raising the electrolyte solution again.
# Planar lipid bilayers were also made with the “painting technique”. We pretreated each side of a pore in a bilayer cup (Warner Instruments, Delrin perfusion cup, volume 1 mL, pore diameter 250 μm) with ˜2 μL of a 25 mg mL-l solution of DiPhyPC in hexane. After adding recording buffer (0.01 M KCl to 1.00 M KCl buffered with HEPES, pH=7.4) to both compartments of the bilayer setup, we “painted” a solution of 20 mg mL-l DiPhyPC in n-decane over the pore by using a paint brush with a fine tip. We followed the thinning of the decane droplet to form a planar bilayer by monitoring the capacitance of the bilayer. After verifying that bilayers were stable for several minutes (in the range of ±200 mV applied voltage) and that the capacitances were above 80-90 pF, gA was added (4-8 μL from 1 ng mL-l in ethanol), derivatives 1 or 2 (2-10 μL from 100 ng mL-l in ethanol), or derivative 3 (4-10 μL from 100 ng mL-l in ethanol) directly to the bilayer chambers.
# Ion channel measurements: We performed single channel recordings in “voltage clamp mode” using Ag/AgCl electrodes (Warner Instruments) in each compartment of the bilayer chambers. Data acquisition and storage was carried out using custom software in combination with either an EPC-7 patch clamp amplifier from List Medical Electronic (set at a gain of 100 mV pA-1 and a filter cutoff frequency of 3 kHz) or a Geneclamp 500 amplifier from Axon Instruments (with a CV-5B 100GU headstage, set at a gain of 100 mV pA-1 and filter cutoff frequency of 1 kHz). We used the EPC-7 amplifier for most folded bilayers and the Geneclamp 500 amplifier for most painted bilayers. The data acquisition boards for both amplifiers were set to a sampling frequency of 15 kHz. All current traces shown in the figures were further filtered using a digital Gaussian low-pass filter with a cutoff frequency of 30 Hz. The current traces we used to generate all data that was recorded at applied potentials s 50 mV were filtered at 10 Hz.
# We performed the analysis of the single channel current traces by computing histograms of the currents from the original current-time traces with ClampFit 9.2 software from Axon Instruments. From these histograms we extracted the main current values by fitting a Gaussian function to the peaks in the histograms. […] Single channel conductances reported in this paper always refer to the main conductance state (i.e. to the dominant peaks in the current histograms).
# [2] = Single-channel conductance in negatively charged planar bilayers (50% POPE, 50% DOPS); details: 0.01 M KCl, 0.1 mM HEPES pH 7.4
# Source text: The data acquisition boards for both amplifiers were set to a sampling frequency of 15 kHz.
# [3] = Single-channel conductance in bilayers with positively-charged headgroups (10% DODAP, 90% DiPhyPC); details: 20 mM KCl
# Experimental: The conductance of gA-gA and 2-2 in lipid bilayers that contained 10% of a lipid with positively-charged headgroups (here, 1,2-dioleoyl-3-(dimethylamino)propane, DODAP, and 90% DiPhyPC) was measured.
# Formation of planar lipid bilayers: We formed most planar lipid bilayers with the “folding technique.” We used a Teflon film (Eastern Scientific Inc, pore diameter 0.18-0.25 mm) was pretreated on each side with 2.5 μL of 5% hexadecane in pentane and air dried. This film was mounted using vacuum grease (Dow Corning, High vacuum grease) to a custom made Teflon chamber separating two buffer compartments each with a volume capacity of 4 mL. […]
# Ion channel measurements: We performed single channel recordings in “voltage clamp mode” using Ag/AgCl electrodes (Warner Instruments) in each compartment of the bilayer chambers. […] The current traces we used to generate all data that was recorded at applied potentials s 50 mV were filtered at 10 Hz. […]
# [4] = Single-channel conductance of homodimeric gA pores in planar lipid bilayers made from DiPhyPC (Example 1); details: 20 mM KCl plus 10 mM KOH
substance,measurement,setting,value
taurinyl gramicidate [compound 2],Single-channel conductance γ,"[1]; 0.01 M KCl, homodimers",4.3 ± 0.3 pS
same,ratio between the conductance of 2-2 and gA-gA,"[1]; 0.02 M KCl, 100 mV applied potential",1.4
same,ratio between the conductance of 2-2 and gA-gA,"[1]; 0.02 M KCl, 200 mV applied potential",1.5
same,conductance compared with gA-gA at pH 7.4,"[1]; 20 mM KCl, DiPhyPC",significantly larger
same,γ at pH 7.4,"[1]; 20 mM KCl, DiPhyPC bilayers, homodimers",5.8 ± 0.1 pS
same,"overall conductance of heterodimeric pore of gA and 2, with 2 at the entrance of the pore","[1]; 0.02 M KCl, DiPhyPC, transmembrane potentials above 100 mV",approximately the same as that of homodimeric pores from 2
same,Single-channel conductance γ,"[1]; 0.10 M KCl, homodimers",12.6 ± 0.4 pS
same,γ-ratio to gA-gA,[1]; 0.10 M KCl,1.2
same,Single-channel conductance γ,"[1]; 1.00 M KCl, homodimers",21.5 ± 0.3 pS
same,γ-ratio to gA-gA,[1]; 1.00 M KCl,1.1
same,"current as share of the estimated maximum, mass transport limited current (3 pA)","[1]; 200 mV applied potential, 0.02 M KCl",~30%
same,difference in single channel conductance compared to gA,[1]; approximately 1.00 M KCl,< 10%
same,Single-channel conductance γ in negatively charged bilayers,[2],24.4±0.5 pS
same,increase of the relative ratio of conductance of 2-2 to gA-gA versus purely zwitterionic lipids,[3],10%
same,conductance compared with gA-gA at pH 12,[4]; DiPhyPC,significantly larger
same,γ at pH 12,"[4]; DiPhyPC bilayers, homodimers",9.8 ± 0.2 pS
